Test results from patent US20070167419A1, “TREATMENT FOR EMBOLIC STROKE” (priority 2005, published 2007).
Entries after “also recorded” stand apart in the source; their conditions may differ.

Legend:
Format in all cases: in vivo
[1] = tested on: small clot embolic strokes in rabbits; test: rabbit small clot embolic stroke model (RSCEM), quantal analysis of behavior
Excerpt: The invention used a rabbit small clot embolic stroke model (RSCEM) that reproduces many facets of human AIS including a well-defined clinical endpoint. The RSCEM utilizes administration of a suspension of small blood clots to induce strokes, and behavioral deficits that can be measured quantitatively. Moreover, the RSCEM is useful to conduct studies testing the effects of single drugs or drug combinations such as a neuroprotective agent (e.g., NXY-059) plus a thrombolytic (Tenecteplase, Alteplase, Desmoteplase and the like). Since it is likely that a drug combination will be used for patient management it is important to determine whether there are any interactions (positive or negative) between the compounds when administered following embolic strokes.
Methods: Male New Zealand white rabbits were anesthetized using halothane (5% induction, 2% maintenance by facemask), the bifurcation of the right carotid artery was exposed and the external carotid was ligated just distal to the bifurcation, where a catheter was inserted into the common carotid and secured with ligatures. The incision was closed around the catheter with the distal ends left accessible outside the neck; the catheter was filled with heparinized saline and plugged with an injection cap. Rabbits were allowed to recover from anesthesia for a minimum of 3 h until they awoke and behaved normally.
For the RSCEM, microclots were prepared from blood drawn from a donor rabbit and allowed to clot at 37° C. All rabbits in the study received injections of the same sized microclots. For embolization, clot particles were rapidly injected through the carotid catheter and both the syringe and catheter were flushed with 5 ml of normal saline.
Treatment Regimens: (A) Dose-Response Curve: NXY-059 was administered IV at a dose of 0.1-100 mg/kg infused over 30 min beginning 1 hour following embolization. (B) Therapeutic Window: NXY-059 (100 mg/kg) was given beginning 1, 3 or 6 hours following embolization. (C) Tenecteplase Dosing: Tenecteplase was administered IV at a dose of 0.9 mg/kg as a bolus injection given over one minute was administered 1 or 6 hours following embolization. (D) Combination studies: NXY-059 was administered IV at a dose of 100 mg/kg infused over 30 min and Tenecteplase was administered IV at a dose of 0.9 mg/kg beginning 1 or 6 hours following embolization.
Quantal Dose-Response Analysis: For the RSCEM, a quantal dose-response data analysis technique was used. A wide range of lesion volumes is induced to generate both normal and abnormal animals. Using 3 or more different doses of microclots generated each quantal analysis curve. […] Each animal is rated as either normal or abnormal (including dead animals), and inter-rater variability is very low (<5%). […] With this simple rating system, the composite result for a group of animals is quite reproducible. The P50 values are then calculated. These parameters are measures of the amount of microclots (in mg) that produce neurologic dysfunction in 50% of a group of animals. A separate curve is generated for each treatment condition that was tested. The data were analyzed using the t-test, which included the Bonferroni correction where appropriate.
Using the RSCEM model as described above male New Zealand white rabbits weighing 2.2-2.6 Kg were anesthetized and a catheter was inserted into the common carotid artery through which microclots were injected. Briefly, the bifurcation of one carotid artery was exposed and the external carotid was ligated just distal to the bifurcation. A catheter was inserted into the common carotid and secured with ligatures. The incision was closed around the catheter so that the distal end was accessible outside the animal's neck. The catheter was then filled with heparinized saline and plugged with an injection cap. Rabbits were allowed to recover from anesthesia until they were awake and behaving normally. […]

[2] = tested on: spinal cord ischemia induced by temporary occlusion of the infrarenal aorta; test: rabbit reversible spinal cord ischemia model (RSCIM)
Method: In a rabbit reversible spinal cord ischemia model (RSCIM). ABHS was administered (25 mg/kg) intravenously (i.v.) 5 or 30 min following the start of occlusion to groups of rabbits exposed to ischemia induced by temporary occlusion of the infrarenal aorta. The group P50 represents the duration of ischemia (min) associated with a 50% probability of resultant permanent paraplegia.

[3] = tested on: small clot embolic strokes in rabbits; test: rabbit small clot embolic stroke model (RSCEM), quantal analysis of behavior; conditions: for Observation: ABHS 25 mg/kg IV; for Abnorm / Norm: ABHS 25 mg/kg, 5 min
[4] = ABHS 25 mg/kg, 5 min, clot dose 0.38 mg

CC(=O)[C@H]1CC[C@H]2[C@@H]3CC[C@@H]4C[C@H](OC(=O)CCC(=O)O)CC[C@]4(C)[C@H]3CC[C@]12C [ABHS, 3-alpha-ol-5-beta-pregnan-20-one hemisuccinate] was tested, and the Observation ([1]; ABHS 25 mg/kg IV, 60 min following embolization) was “Sedation”, the “Abnorm (rabbits rated behaviorally abnormal)” value [1, 4] was 0 and the “Norm (rabbits rated behaviorally normal)” value [1, 4] was 1. The Abnorm ([1]; ABHS 25 mg/kg, 5 min, clot dose 1.99 mg) was 1, the Abnorm ([1]; ABHS 25 mg/kg, 5 min, clot dose 2.21 mg) was 1 and the Norm ([1]; ABHS 25 mg/kg, 5 min, clot dose 2.97 mg) was 1. The Abnorm ([1]; ABHS 25 mg/kg, 5 min, clot dose 4.35 mg) was 1, the “effect on therapeutic window of tPA” value ([1]; FIG. 7) was “increases the therapeutic window for tPA” and the “effect on tolerance to ischemia” value ([2]; ABHS administered 30 min following the start of occlusion) was “increased the tolerance to ischemia”. The “persistence of effect” value ([2]; ABHS injected 5 min following the start of ischemia and again 24 h after ischemia) was “persistent effect of the drug at 48 h”, the Observation ([3]; 5 min following embolization) was “Sedation” and the Observation ([3]; 180 min following embolization) was “Sedation”. It also gave an Abnorm ([3]; clot dose 0.53 mg) of 0, a Norm ([3]; clot dose 0.53 mg) of 1 and an Abnorm ([3]; clot dose 1.42 mg) of 0. It also gave a Norm ([3]; clot dose 1.42 mg) of 1, an Abnorm ([3]; clot dose 1.60 mg) of 0 and a Norm ([3]; clot dose 1.60 mg) of 1. It also gave an Abnorm ([3]; clot dose 1.72 mg) of 0, a Norm ([3]; clot dose 1.72 mg) of 1 and a Norm ([3]; clot dose 1.99 mg) of 0. It also gave a Norm ([3]; clot dose 2.21 mg) of 0, an Abnorm ([3]; clot dose 2.31 mg) of 0 and a Norm ([3]; clot dose 2.31 mg) of 1. The Abnorm ([3]; clot dose 2.89 mg) was 1, the Norm ([3]; clot dose 2.89 mg) was 0 and the Abnorm ([3]; clot dose 2.97 mg) was 0. For the same molecule, the Abnorm ([3]; clot dose 3.38 mg) was 1, the Norm ([3]; clot dose 3.38 mg) was 0 and the Abnorm ([3]; clot dose 3.88 mg) was 1. For the same molecule, the Norm ([3]; clot dose 3.88 mg) was 0, the Norm ([3]; clot dose 4.35 mg) was 0 and the Abnorm ([3]; clot dose 4.67 mg) was 0. For the same molecule, the Norm ([3]; clot dose 4.67 mg) was 1.
With CC(C)(C)[N+]([O-])=Cc1ccc(S(=O)(=O)O)cc1S(=O)(=O)O.[Na].[Na] [NXY-059, disodium 2,4-disulfophenyl-N-tert-butylnitrone] the P50 ([1]; NXY-059 100 mg/kg, 6 hours following embolization, not significant vs vehicle) was 1.35 ± 0.37 mg, the “effect on P50 vs vehicle” value ([1]; NXY-059 doses from 1-100 mg/kg, 1 hour following embolization, p<0.05) was “significantly increased the P50” and the “effect on P50 vs vehicle” value ([1]; NXY-059 lower dose (0.10 mg/kg), 1 hour following embolization, p>0.05) was “did not”.
In the case of CC12CC3CC(C)(C1)CC(N)(C3)C2 [memantine], the “effect on efficacy of low-dose tPA” value ([1]; FIG. 8) is reported as “increases the efficacy of low-dose tPA”.
For Tenecteplase, the P50 ([1]; Tenecteplase 0.9 mg/kg IV bolus, 1 hour following embolization, 24 hours) was 2.76 ± 0.37 mg, the “increase of P50 over control” value ([1]; Tenecteplase 0.9 mg/kg, 1 hour following embolization) was 130% and the “effect on P50 vs control” value ([1]; Tenecteplase 0.9 mg/kg, 6 hours following embolization) was “did not increase the P50 compared to control; also recorded: neither Tenecteplase, nor NXY-059, significantly (p>0.05) affect P50 values”.
